In PMC11434960, “Evaluation of [^68Ga]Ga-DOTA-AeK as a Potential Imaging Tool for PET Imaging of Cell Wall Synthesis in Bacterial Infections” (Pharmaceuticals, 2024):
“Also recorded” adds a separate entry of the source.

Tests used:
[1] = tested on: E. coli; design: method as in PMID 3891732; settings: in vitro; cited from earlier work
[2] = tested on: E. coli; assay: Bacterial uptake and incorporation of AeK-NBD, flow cytometry; assay type: cell-based, Escherichia coli
Experimental: (§1) Bacterial cell cultures (either live or heat-killed) of E. coli or S. aureus (1.0 McFarland standard) were prepared as described above. For bacterial staining, 2.0 μL (100 mM in DMSO) of fluorescent AeK-NBD was added to 198 μL of bacterial culture (7.7 × 10^7 cells/mL), and cells were counterstained with 2.0 μL (10 μM in DMSO) of membrane-permeable DNA Vybrant DyeCycle (VDC) Ruby dye (Thermo Fisher Scientific, Waltham, MA, USA). All cultures were incubated at 37 °C, and samples were taken at different intervals (10, 30, and 60 min) to perform flow cytometric analysis (Cytoflex, Beckman Coulter Life Sciences, Brea, CA, USA). AeK-NBD was excited with a 488 nm laser, and the emitted fluorescence was collected using a 540/30 nm band pass filter, as carried out previously. The VDC Ruby dye was excited with a 638 nm laser, and the emitted fluorescence was collected using a 712/25 nm band pass filter. No noticeable spillover was observed when VDC Ruby ‘only’ and AeK-NBD ‘only’ controls were used as controls for possible fluorescence spillover. […] The NBD-AeK median fluorescence intensity (MFI) of VDC Ruby-positive bacteria was reported. […]
(§2) Sample preparation of E. coli and S. aureus suspensions for confocal fluorescence microscopy imaging involved immediate staining with AeK-NBD and membrane-permeable DNA VDC Ruby dye for 10 min, as described in the previous section. […]

[3] = tested on: S. aureus; assay: as above; assay type: cell-based, Staphylococcus aureus
Experimental: as §1, §2

Row | Substance | bacterial uptake / utilisation in PG recycling pathway [1] | time at which bacterial incorporation was observed ([2]; E. coli, 37 °C) | fluorescence intensity in live cells (flow cytometry) ([2]; live E. coli, significantly decreased in heat-killed cultures (p < 0.05), up to 60 min) | time at which bacterial incorporation was observed ([3]; S. aureus, 37 °C) | fluorescence intensity in live cells (flow cytometry) ([3]; live S. aureus, significantly decreased in heat-killed cultures (p < 0.05), up to 60 min)
1 | ^3H-labeled disaccharide-(L-Ala-D-Glu-meso-A2pm) tripeptide | lack of bacterial uptake and internalization | – | – | – | –
2 | L-Ala-γ-D-Glu-L-Lys-N-7-nitro-2,1,3-benzoxadiazol-4-yl [AeK-NBD] | – | 10 min | high fluorescence intensity | 10 min | high fluorescence intensity
3 | L-Ala-γ-D-Glu-[^3H]A2pm | successful in vitro integration; also recorded: effectively utilized by E. coli | – | – | – | –
